Data taken from US12662451B2, “Chemical compounds and uses thereof” (GLAXOSMITHKLINE INTELLECTUAL PROPERTY (NO.4) LIMITED, priority 2023, dated 2026).
Where a name gives a salt, the structure may show the parent alone.

molecular target: T1, recombinant full-length WRN protein (1-1432) (Homo sapiens, UniProt Q14191); assay: WRN unwinding activity, fluorogenic 384-well assay (Example A); format: biochemical; details: WRN unwinding activity, 4 hr; Table 2; read-out: 4 hr UNW pIC50 (converted)
T1 construct: recombinant full-length WRN protein (1-1432)
Procedure, shortened: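 200 pM enzyme (2× stock) preincubated with compound 4 h at ambient temperature, then 200 μM ATP and 12 nM quenched TAMRA-labelled dsDNA (2× stocks) added for 60 min; EDTA-quenched. Buffer 25 mM Tris pH 8.0, 5 mM NaCl, 2 mM MgCl2. Fluorescence at 525/598 nm; pIC50 from four-parameter fit.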

T1 sequence (Q14191 whole entry): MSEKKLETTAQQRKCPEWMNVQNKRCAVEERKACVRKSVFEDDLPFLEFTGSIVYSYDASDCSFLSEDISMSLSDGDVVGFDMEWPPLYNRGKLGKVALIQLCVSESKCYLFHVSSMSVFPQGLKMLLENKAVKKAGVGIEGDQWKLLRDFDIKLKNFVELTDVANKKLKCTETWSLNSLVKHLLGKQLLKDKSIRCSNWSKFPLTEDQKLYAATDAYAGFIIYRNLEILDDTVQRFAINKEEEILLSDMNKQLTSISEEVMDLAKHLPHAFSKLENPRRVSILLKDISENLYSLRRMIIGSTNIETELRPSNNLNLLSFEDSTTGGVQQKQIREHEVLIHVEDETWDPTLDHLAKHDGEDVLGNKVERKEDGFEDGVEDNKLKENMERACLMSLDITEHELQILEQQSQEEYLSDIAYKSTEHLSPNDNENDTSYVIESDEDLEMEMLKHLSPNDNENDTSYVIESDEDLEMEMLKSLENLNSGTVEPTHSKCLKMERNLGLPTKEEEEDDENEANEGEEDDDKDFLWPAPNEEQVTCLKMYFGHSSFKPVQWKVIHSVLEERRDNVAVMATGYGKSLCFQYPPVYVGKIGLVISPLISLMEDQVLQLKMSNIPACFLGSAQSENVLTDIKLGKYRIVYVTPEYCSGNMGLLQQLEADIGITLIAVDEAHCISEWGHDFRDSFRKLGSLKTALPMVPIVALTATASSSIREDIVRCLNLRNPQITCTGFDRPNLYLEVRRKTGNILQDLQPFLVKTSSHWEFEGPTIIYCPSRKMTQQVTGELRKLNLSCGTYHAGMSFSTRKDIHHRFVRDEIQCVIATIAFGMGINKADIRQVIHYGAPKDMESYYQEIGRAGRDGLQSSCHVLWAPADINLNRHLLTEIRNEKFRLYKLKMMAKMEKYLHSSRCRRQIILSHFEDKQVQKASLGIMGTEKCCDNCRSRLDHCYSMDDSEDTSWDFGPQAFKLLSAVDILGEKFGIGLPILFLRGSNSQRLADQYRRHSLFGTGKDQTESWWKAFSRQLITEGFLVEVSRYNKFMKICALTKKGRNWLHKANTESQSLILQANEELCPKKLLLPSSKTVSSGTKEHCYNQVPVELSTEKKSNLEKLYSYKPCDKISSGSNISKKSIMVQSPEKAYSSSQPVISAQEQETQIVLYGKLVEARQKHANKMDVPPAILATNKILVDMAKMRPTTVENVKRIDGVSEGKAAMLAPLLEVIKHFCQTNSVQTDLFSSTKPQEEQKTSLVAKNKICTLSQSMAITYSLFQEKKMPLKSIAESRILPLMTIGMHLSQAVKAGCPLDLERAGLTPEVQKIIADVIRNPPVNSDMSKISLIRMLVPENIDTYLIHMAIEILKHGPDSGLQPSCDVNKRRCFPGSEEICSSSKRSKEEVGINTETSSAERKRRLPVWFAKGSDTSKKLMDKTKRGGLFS

SMILES	IC50 [nM]
COc1cc(C(F)(F)F)ccc1[C@H]1CCC[C@@H](C(=O)Nc2ccc(C(F)(F)F)cc2F)[C@@H]1C(=O)O (racemic) [Example 237, rac-(1R,2R,6S)-2-((2-fluoro-4-(trifluoromethyl)phenyl)carbamoyl)-6-(2-methoxy-4-(trifluoromethyl)phenyl)cyclohexane-1-carboxylic acid]	200
O=C(O)[C@@H]1[C@@H](c2ccc(-c3cnn(CC4CC4)c3)cc2)CCC[C@H]1C(=O)Nc1ccc(C(F)(F)F)cc1F [Example 23, (1R,2S,6R)-2-(4-(1-(cyclopropylmethyl)-1H-pyrazol-4-yl)phenyl)-6-((2-fluoro-4-(trifluoromethyl)phenyl)carbamoyl)cyclohexane-1-carboxylic acid]	126
O=C(O)[C@@H]1[C@@H](c2ccc(-c3ccn[nH]3)cc2)CCC[C@H]1C(=O)Nc1ccc(C(F)(F)F)cc1F [Example 5, (1R,2S,6R)-2-(4-(1H-pyrazol-5-yl)phenyl)-6-((2-fluoro-4-(trifluoromethyl)phenyl)carbamoyl)cyclohexane-1-carboxylic acid]	20
Cc1nc2cc(S(=O)(=O)N(C)c3ccc([C@@H]4C[C@H]5COC[C@H]5[C@H](C(=O)Nc5ccc(C(F)(F)F)cc5F)[C@H]4C(=O)O)cc3)ccc2n1C (stereo in doubt) [Example 394, rel-(3aR,4S,5S,6R,7aR)-4-((2-fluoro-4-(trifluoromethyl)phenyl)carbamoyl)-6-(4-((N,1,2-trimethyl-1H-benzo[d]imidazole)-5-sulfonamido)phenyl)octahydroisobenzofuran-5-carboxylic acid]	501
Cc1ncccc1-c1ccc([C@H]2CCC[C@@H](C(=O)Nc3ccc(C(F)(F)F)cc3F)[C@@H]2C(=O)O)cc1 [Example 13, (1R,2R,6S)-2-((2-fluoro-4-(trifluoromethyl)phenyl)carbamoyl)-6-(4-(2-methylpyridin-3-yl)phenyl)cyclohexane-1-carboxylic acid, formic acid salt]	63.1
COCCOc1cc([C@H]2CCC[C@@H](C(=O)Nc3ccc(C(F)(F)F)cc3F)[C@@H]2C(=O)O)ccc1C(F)(F)F (racemic) [Example 234, rac-(1R,2R,6S)-2-((2-fluoro-4-(trifluoromethyl)phenyl)carbamoyl)-6-(3-(2-methoxyethoxy)-4-(trifluoromethyl)phenyl)cyclohexane-1-carboxylic acid]	1000
CC(=O)N(C)[C@H]1C[C@H](C(=O)Nc2ccc(C(F)(F)F)cc2F)[C@@H](C(=O)O)[C@H](c2ccc(N(C)S(=O)(=O)c3ccc4c(c3)nc(C)n4C)cc2)C1 (stereo in doubt) [Example 293, rel-(1R,2R,4S,6S)-2-((2-fluoro-4-(trifluoromethyl)phenyl)carbamoyl)-4-(N-methylacetamido)-6-(4-((N,1,2-trimethyl-1H-benzo[d]imidazole)-5-sulfonamido)phenyl)cyclohexane-1-carboxylic acid]	31.6
Cc1nc2cc(S(=O)(=O)N(C)c3ccc([C@@H]4C[C@@H](N5CCC(F)(F)CC5)C[C@H](C(=O)Nc5ccc(C(F)(F)F)cc5F)[C@H]4C(=O)O)cc3)ccc2n1C (relative stereo) [Example 341, rel-(1R,2R,4S,6S)-4-(4,4-difluoropiperidin-1-yl)-2-((2-fluoro-4-(trifluoromethyl)phenyl)carbamoyl)-6-(4-((N,1,2-trimethyl-1H-benzo[d]imidazole)-5-sulfonamido)phenyl)cyclohexane-1-carboxylic acid]	7940
O=C(O)[C@@H]1[C@@H](c2ccc(-c3cccc(COC4CCOCC4)c3)cc2)CCC[C@H]1C(=O)Nc1ccc(C(F)(F)F)cc1F [Example 21, (1R,2R,6S)-2-((2-fluoro-4-(trifluoromethyl)phenyl)carbamoyl)-6-(3′-(((tetrahydro-2H-pyran-4-yl)oxy)methyl)-[1,1′-biphenyl]-4-yl) cyclohexane-1-carboxylic acid]	7940
CO[C@@H]1C[C@H](c2ccc(N(C)S(=O)(=O)c3ccc4c(c3)nc(C)n4C)cc2)[C@@H](C(=O)O)[C@H](C(=O)Nc2ccc(C(F)(F)F)cc2F)C1 (single isomer, unassigned) [Example 146]	100
O=C(O)[C@@H]1[C@@H](c2ccc(N3CCC4(CC3)CO4)cc2)CCC[C@H]1C(=O)Nc1ccc(C(F)(F)F)cc1F (racemic) [Example 228, rac-(1R,2S,6R)-2-(4-(1-oxa-6-azaspiro[2.5]octan-6-yl)phenyl)-6-((2-fluoro-4-(trifluoromethyl)phenyl)carbamoyl)cyclohexane-1-carboxylic acid]	6310
Cc1nc2cc(S(=O)(=O)N(C)c3ccc([C@@H]4C[C@@H](N5CC6(F)CC5C6)C[C@H](C(=O)Nc5ccc(C(F)(F)F)cc5F)[C@H]4C(=O)O)cc3)ccc2n1C (relative stereo) [Example 399, rel-(1R,2R,4S,6S)-2-((2-fluoro-4-(trifluoromethyl)phenyl)carbamoyl)-4-(4-fluoro-2-azabicyclo[2.1.1]hexan-2-yl)-6-(4-((N,1,2-trimethyl-1H-benzo[d]imidazole)-5-sulfonamido)phenyl)cyclohexane-1-carboxylic acid]	12600
Cc1cc(-c2ccc([C@H]3CCC[C@@H](C(=O)Nc4ccc(C(F)(F)F)cc4F)[C@@H]3C(=O)O)cc2)cs1 [Example 47, (1R,2R,6S)-2-((2-fluoro-4-(trifluoromethyl)phenyl)carbamoyl)-6-(4-(5-methylthiophen-3-yl)phenyl)cyclohexane-1-carboxylic acid]	10
Cc1nc2cc(S(=O)(=O)N3CCOc4cc([C@@H]5CCC[C@H](C(=O)Nc6ccc(C(F)(F)F)cc6F)[C@H]5C(=O)O)ccc43)ccc2n1C (single isomer, unassigned) [Example 242]	794
C=CC1COC[C@@H]1c1ccc([C@H]2CCC[C@@H](C(=O)Nc3ccc(C(F)(F)F)cc3F)[C@@H]2C(=O)O)cc1 (mixture of isomers) [Example 66, 1:1 Mixture of (1R,2R,6S)-2-((2-fluoro-4-(trifluoromethyl)phenyl)carbamoyl)-6-(4-((3S)-4-vinyltetrahydrofuran-3-yl)phenyl)cyclohexane-1-carboxylic acid AND (1R,2R,6S)-2-((2-fluoro-4-(trifluoromethyl)phenyl)carbamoyl)-6-(4-((3R)-4-vinyltetrahydrofuran-3-yl)phenyl)cyclohexane-1-carboxylic acid]	2510
Cc1nc2cc(S(=O)(=O)N(C)c3ccc([C@@H]4C[C@@H](N)C[C@H](C(=O)Nc5ccc(C(F)(F)F)cc5F)[C@H]4C(=O)O)cc3)ccc2n1C (stereo in doubt) [Example 299, rel-(1R,2R,4S,6S)-4-amino-2-((2-fluoro-4-(trifluoromethyl)phenyl)carbamoyl)-6-(4-((N,1,2-trimethyl-1H-benzo[d]imidazole)-5-sulfonamido)phenyl)cyclohexane-1-carboxylic acid]	63.1
O=C(O)[C@@H]1[C@@H](c2ccc(C3COC3)cc2)CCC[C@H]1C(=O)Nc1ccc(C(F)(F)F)cc1F [Example 63, (1R,2R,6S)-2-((2-fluoro-4-(trifluoromethyl)phenyl)carbamoyl)-6-(4-(oxetan-3-yl)phenyl)cyclohexane-1-carboxylic acid]	1580
Cc1nc2cc(S(=O)(=O)N(C)c3ccc([C@H]4CCC[C@@H](C(=O)N[C@@H]5C[C@@H]6CC(F)(F)C[C@@H]6C5)[C@@H]4C(=O)O)cc3)ccc2n1C [Example 191, (1R,2R,6S)-2-(((2s,3aR,6aS)-5,5-difluorooctahydropentalen-2-yl)carbamoyl)-6-(4-((N,1,2-trimethyl-1H-benzo[d]imidazole)-5-sulfonamido)phenyl)cyclohexane-1-carboxylic acid]	398
Cc1nc2cc(S(=O)(=O)N(C)c3ccc([C@H]4CCC[C@@H](C(=O)N[C@@H]5CCC[C@@H](C(F)(F)F)C5)[C@@H]4C(=O)O)cc3)ccc2n1C [Example 192, (1R,2R,6S)-2-(((1R,3R)-3-(trifluoromethyl)cyclohexyl)carbamoyl)-6-(4-((N,1,2-trimethyl-1H-benzo[d]imidazole)-5-sulfonamido)phenyl)cyclohexane-1-carboxylic acid]	39800
Cc1nc2cc(S(=O)(=O)N(C)c3ccc([C@H]4CNC[C@@H](C(=O)Nc5ccc(C(F)(F)F)cc5F)[C@@H]4C(=O)O)cc3)ccc2n1C (relative stereo) [Example 308, rel-(3R,4S,5R)-3-((2-fluoro-4-(trifluoromethyl)phenyl)carbamoyl)-5-(4-((N,1,2-trimethyl-1H-benzo[d]imidazole)-5-sulfonamido)phenyl)piperidine-4-carboxylic acid]	1.58
Cc1nc2cc(S(=O)(=O)N(C)c3ccc([C@H]4CCC[C@H](C(=O)Nc5ccc(C(C)C)cc5)[C@@H]4C(=O)O)cc3)ccc2n1C (single isomer, unassigned) [Example 74]	251
Cc1nc2cc(S(=O)(=O)N(C)c3ccc([C@H]4CCC[C@@H](CNc5ccc(C(C)C)cc5)[C@@H]4C(=O)O)cc3)ccc2n1C (racemic) [Example 200, rac-(1R,2R,6S)-2-(((4-isopropylphenyl)amino)methyl)-6-(4-((N,1,2-trimethyl-1H-benzo[d]imidazole)-5-sulfonamido)phenyl)cyclohexane-1-carboxylic acid]	12.6
Cc1cn2nc(-c3ccc([C@H]4CCC[C@@H](C(=O)Nc5ccc(C(F)(F)F)cc5F)[C@@H]4C(=O)O)cc3)ccc2n1 [Example 22, (1R,2R,6S)-2-((2-fluoro-4-(trifluoromethyl)phenyl)carbamoyl)-6-(4-(2-methylimidazo[1,2-b]pyridazin-6-yl)phenyl)cyclohexane-1-carboxylic acid]	1000
Cc1nc2cc(S(=O)(=O)N(C)c3ccc([C@H]4C[C@@H](O)C[C@@H](C(=O)Nc5ccc(C(F)(F)F)cc5F)[C@@H]4C(=O)O)cc3)ccc2n1C (single isomer, unassigned) [Example 144]	50.1
Cc1nc2cc(S(=O)(=O)N(C)c3ccc([C@H]4CCC[C@@H](C(=O)Nc5ccc(C(F)(F)F)cc5F)[C@@H]4C(=O)O)cc3)ccc2[nH]1 (single isomer, unassigned) [Example 91]	126
